Reference: ChEMBL document CHEMBL4706483, “Discovery of novel phosphatidylcholine-specific phospholipase C drug-like inhibitors as potential anticancer agents” (Eur J Med Chem, 2020)
Activity calls are given as the source filed them. No cut-off for these calls is given here.

Target: Phospholipase C (Bacillus cereus) (UniProt P09598)
Experiment: Inhibition of recombinant Bacillus cereus N-terminal His6-tagged full length PC-PLC 3C Protease cleavage site expressed in Escherichia coli BL21(DE3) cells at 10 uM using phosphatidylcholine as substrate by amplex red assay relative to control

Sequence of Phospholipase C (Bacillus cereus) (P09598 whole entry, looked up): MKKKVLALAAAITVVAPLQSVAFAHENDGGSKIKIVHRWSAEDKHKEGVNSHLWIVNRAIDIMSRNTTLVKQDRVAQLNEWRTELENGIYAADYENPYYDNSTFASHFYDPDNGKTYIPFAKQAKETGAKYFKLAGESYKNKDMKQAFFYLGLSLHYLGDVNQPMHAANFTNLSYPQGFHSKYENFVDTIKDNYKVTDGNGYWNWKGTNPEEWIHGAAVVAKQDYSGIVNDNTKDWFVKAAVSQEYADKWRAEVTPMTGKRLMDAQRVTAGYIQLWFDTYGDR

Question: For COc1cc(C2NC(C(=O)O)Cc3c2[nH]c2ccccc32)cc(OC)c1O (stereo not drawn), which inhibition is on record?
Answer: 60%

Question: Which inhibition does the source give for O=C(O)c1cc(NCc2cccc(Cl)c2)ccc1N1CCOCC1 here?
Answer: 89%

Question: With O=C(O)c1cc(NCc2ccccc2)ccc1N1CCOCC1 as the compound, how does the inhibition read?
Answer: 67%

Question: With CSc1ccc(CNc2ccc(N3CCOCC3)c(C(=O)O)c2)cc1 as the compound, how does the inhibition read?
Answer: inactive

Question: Which inhibition does the source give for O=C(O)c1ccccc1N1CCOCC1 here?
Answer: inactive

Question: How did the inhibition turn out when COc1cccc(C(=O)Nc2ccc(O)cc2C(=O)O)c1 was run?
Answer: 47%

Question: O=C(O)C1Cc2c([nH]c3ccccc23)C(c2ccc(O)c(O)c2)N1 (stereo not drawn) was tested. Which inhibition did it give?
Answer: 75%

Question: For O=C(O)c1cccc(NS(=O)(=O)c2ccc(C3CCCCC3)cc2)c1, which inhibition is on record?
Answer: 25%

Question: With Cc1[nH]c2ccc(Cl)cc2c1CC(=O)O as the compound, how does the inhibition read?
Answer: 65%

Question: Which inhibition does the source give for O=C(O)C1Cc2c([nH]c3ccccc23)C(c2ccc(Cl)cc2Cl)N1 (stereo not drawn) here?
Answer: 44%

Question: For O=C(O)C1Cc2c([nH]c3ccccc23)C(c2ccc(C(F)(F)F)cc2)N1 (stereo not drawn), which inhibition is on record?
Answer: 37%

Question: With O=C(O)c1cc(NCc2cccc(Br)c2)ccc1N1CCOCC1 as the compound, how does the inhibition read?
Answer: 80%

Question: How did the inhibition turn out when O=C(O)c1cc(NCc2ccccc2Cl)ccc1N1CCOCC1 was run?
Answer: 89%

Question: Which inhibition does the source give for O=C(O)c1cc(NCc2ccc(Cl)cc2Cl)ccc1N1CCOCC1 here?
Answer: 65%

Question: Which inhibition does the source give for O=C(O)c1cc(NCc2ccccc2C(F)(F)F)ccc1N1CCOCC1 here?
Answer: inactive

Question: CN(C)c1ccc(C2NC(C(=O)O)Cc3c2[nH]c2ccccc32)cc1 (stereo not drawn) was tested. Which inhibition did it give?
Answer: 43%

Question: Cc1[nH]c2ccc(C(=O)O)cc2c1CC(=O)O was tested. Which inhibition did it give?
Answer: 60%

Question: How did the inhibition turn out when CN1CCN(c2ccc(NCc3cccc(Br)c3)cc2C(=O)O)CC1 was run?
Answer: inactive
